The assay concerns Hepatic metastases. Description: Induced hepatic metastases after intrasplenic tumor cell injection. Format: in vivo, C57BL/6 mice. The note with it: DAP 100 mg/kg; for Metastic foci: mean ± S.E., n=8; for % Reduction: reduction in metastic foci from PBS control group. Here is the method: Hepatic metastases were induced as follows. C57BL/6 mice were anesthetized by […] of pentobarbital. The mice were prepped with 70% ethanol, dried with a sterile gauze, and then, with the use of sterile scissors, a small left subcostal incision was made. The spleen was exposed, and its short gastric vessels along with the gastrosplenic ligament were cut, allowing the spleen to be brought onto the animal's abdominal wall attached to its splenic pedicle. […] of a single cell suspension containing 3 x 10⁵ tumor cells in HBSS was injected into the upper pole of the exposed extraabdominal spleen. After the injection was completed, the needle was removed, and a period of 1 minute was allowed to elapse to permit tumor cells to be flushed into the portal circulation. The splenic pedicle was clipped, the spleen was removed, and splenic pedicle was dropped i.p. The abdominal wall musculature and skin were closed in one layer. The animals were randomly allocated to their respective treatment groups and were allowed to recover. By day 3 after tumor injection, micrometastases were apparent histologically.
Each group was then treated with DAP, intraperitonealy, subcutaneously, or orally. A control group was treated with phosphate buffered saline (PBS). Metastic foci was determined and the percent reduction in metastic foci from the control group was determined with each group treated with DAP as follows: […]

Turning to `CC(=O)NCCCCNC(C)=O` [DAP, Diacetylputrescine], the Metastic foci stood at 40.8 ± 14.7 (d1-10, i.p.); 27.2 ± 7.1 (d1-10, p.o.); 31.0 ± 8.4 (d1-10, s.c.). Moreover, the “% Reduction” value amounted to 65.9% (d1-10, i.p.); 77.3% (d1-10, p.o.); 74.1% (d1-10, s.c.).

Values taken from patent publication EP0373623A2, “Pharmaceutical compositions useful in potentiating natural killer cell activity” (MERRELL DOW PHARMACEUTICALS INC., priority 1988, dated 1990).
